Reference: article PMC11571215, “Optimization of Antiproliferative Properties of Triimine Copper(II) Complexes” (Journal of Medicinal Chemistry, 2024)

Tests used:
[1] = system: BAX and BCL-2 proteins in HCT116-DoxR cells; assay: BAX and BCL-2 protein expression by Western Blot; assay type: cell-based, human; conditions: 48 h at IC50; normalized to 0.1% DMSO control and β-actin
Procedure: 0.1% DMSO was used as a negative control and β-actin protein was used for the normalization of the total protein quantity.
HCT116-DoxR cells were seeded in a 25 cm^2 T-flask at a density of 2 × 10^6 cells/T-flask. […] Cells were incubated for 48 h and later were washed and collected using cold PBS 1× and a cell scraper. […]
After the storage period, the samples were submitted 5 ultrasound (Elma sonicator, D-78224 Singen/Htw, Germany) cycles on ice (2 min and 30 s on ultrasound followed by 1 min period on ice) and then centrifuged at 10,000 × g for 5 min. The supernatant was transferred to a 1.5 mL Eppendorf tube, and the total protein extracted was quantified with Pierce 660 nm Protein Assay kit (ThermoFisher Scientific, MA, USA).
In the SDS-PAGE analysis of BAX and BCL-2 proteins, 20 μg of protein was applied into a 10% polyacrylamide gel as well as NZYColour protein marker II and transferred to a 0.45 μm polyvinylidene fluoride (PVDF) membrane (GE Healthcare Life Sciences, Germany). […] Protein quantification was done by densitometry with ImageJ software.

[2] = system: normal human primary dermal fibroblasts; assay: MTS cell viability assay, normal fibroblasts; assay type: cell-based; conditions: 48 h of exposure
Procedure: The antiproliferative effect of the Cu(II) complexes in tumor and healthy cell lines was assessed through the MTS assay, a colorimetric method that is widely used to evaluate cellular viability, specifically mitochondrial viability.[53],[54] Cellular viability was determined after 48 h exposure to a concentration range (0.1–50 μM) of Cu(II) complexes in three tumor cell lines. […] Additionally, the viability of healthy primary dermal fibroblasts was performed as a comparison of the complexes’ antiproliferative effects in normal cells.
Cellular viability assays were performed using HCT116, HCT116-DoxR, and A2780 cancer cell lines as well as normal human primary fibroblasts. Cells were seeded at a density of 0.75 × 10^5 cells/mL in 96-well plates and incubated at 37 °C with 5% (v/v) CO2 for 24 h. After this incubation period, the copper complexes were accurately weighed and immediately dissolved in 100% (v/v) dimethyl sulfoxide (DMSO). Subsequently, the complexes were diluted to the final concentration using a cell culture medium. The culture medium in each well was replaced with fresh medium containing varying concentrations of the complexes (ranging from 0.01 to 50 μM). Negative controls contained culture medium with 0.1% (v/v) DMSO, and positive controls contained 0.4 μM Dox.
After an additional 48 h of incubation under the same conditions, cellular viability was assessed using the CellTiter 96 Aqueous One Solution Cell Proliferation Assay kit (Promega, Madison, USA). […] The absorbance of formazan, measured at 490 nm in a microplate reader (Tecan Infinite M200, Tecan, Männedorf, Switzerland), is directly proportional to the number of viable cells.[104]
The cell viability versus concentration graphics were analyzed using Prism 8 software (GraphPad) to determine the half-maximal inhibitory concentration (IC50) of each complex for the respective cell line. Additionally, the selective index (SI) for each complex was calculated by dividing the IC50 of human fibroblasts by the IC50 values of the tested cancer cell lines.

[Cl][Cu-3]12([Cl])[n+]3ccccc3-c3cc(-c4cccc5ccccc45)cc([n+]31)-c1cccc[n+]12 [Cu1a]
BAX/BCL-2 ratio higher than control [1]: 1.80 ×
IC50 [2]: 9.26 ± 0.9 µM

[Cl][Cu-3]12([Cl])[n+]3ccccc3-c3cc(-c4ccc5ccccc5c4)cc([n+]31)-c1cccc[n+]12 [Cu1b]
BAX/BCL-2 ratio higher than control [1]: 1.65 ×
IC50 [2]: 13.3 ± 1 µM
